Test results as given in the NIST ThermoML archive (doi:10.1016/j.jct.2014.05.016).

Assay: xn = mol fraction of the nth substance listed
Conditions: 100 kPa, Liquid; for mass density: Vibrating tube method; for viscosity: Concentric cylinders viscometry

C[n+]1ccn(CCO)c1.F[B-](F)(F)F [1-(2-hydroxyethyl)-3-methylimidazolium tetrafluoroborate] + CCCCn1cc[n+](C)c1.F[B-](F)(F)F
Conditions	mass density [kg/m3]	viscosity [mPa·s]
318.15 K, x1 = 0.101	1199.8	–
318.15 K, x1 = 0.201	1213.5	–
318.15 K, x1 = 0.3002	1227.8	–
318.15 K, x1 = 0.4006	1243.6	–
318.15 K, x1 = 0.5009	1258.1	–
318.15 K, x1 = 0.5991	1274.1	–
318.15 K, x1 = 0.7001	1293.8	–
318.15 K, x1 = 0.8	1307.8	–
318.15 K, x1 = 0.8995	1325.7	–
318.15 K, x1 = 1	1343.7	–
323.15 K, x1 = 0.1003	–	35.84
323.15 K, x1 = 0.101	1196.3	–
323.15 K, x1 = 0.2001	–	35.27
323.15 K, x1 = 0.201	1209.9	–
323.15 K, x1 = 0.2997	–	35.51
323.15 K, x1 = 0.3002	1224.2	–
323.15 K, x1 = 0.3999	–	35.68
323.15 K, x1 = 0.4006	1240	–
323.15 K, x1 = 0.4996	–	35.08
323.15 K, x1 = 0.5009	1254.5	–
323.15 K, x1 = 0.5991	1270.4	35.69
323.15 K, x1 = 0.6997	–	35.78
323.15 K, x1 = 0.7001	1290.3	–
323.15 K, x1 = 0.7999	–	36.02
323.15 K, x1 = 0.8	1304.1	–
323.15 K, x1 = 0.8995	1322	–
323.15 K, x1 = 0.8998	–	36.55
323.15 K, x1 = 1	1340.1	36.5
328.15 K, x1 = 0.1003	–	29.96
328.15 K, x1 = 0.101	1192.8	–
328.15 K, x1 = 0.2001	–	29.52
328.15 K, x1 = 0.201	1206.5	–
328.15 K, x1 = 0.2997	–	29.75
328.15 K, x1 = 0.3002	1220.7	–
328.15 K, x1 = 0.3999	–	29.9
328.15 K, x1 = 0.4006	1236.4	–
328.15 K, x1 = 0.4996	–	29.42
328.15 K, x1 = 0.5009	1250.9	–
328.15 K, x1 = 0.5991	1266.8	29.91
328.15 K, x1 = 0.6997	–	29.95
328.15 K, x1 = 0.7001	1286.7	–
328.15 K, x1 = 0.7999	–	30.13
328.15 K, x1 = 0.8	1300.5	–
328.15 K, x1 = 0.8995	1318.3	–
328.15 K, x1 = 0.8998	–	30.58
328.15 K, x1 = 1	1336.4	30.46
333.15 K, x1 = 0.1003	–	25.35
333.15 K, x1 = 0.101	1189.3	–
333.15 K, x1 = 0.2001	–	25.03
333.15 K, x1 = 0.201	1203	–
333.15 K, x1 = 0.2997	–	25.2
333.15 K, x1 = 0.3002	1217.2	–
333.15 K, x1 = 0.3999	–	25.27
333.15 K, x1 = 0.4006	1232.9	–
333.15 K, x1 = 0.4996	–	24.96
333.15 K, x1 = 0.5009	1247.6	–
333.15 K, x1 = 0.5991	1263.2	25.36
333.15 K, x1 = 0.6997	–	25.41
333.15 K, x1 = 0.7001	1283.1	–
333.15 K, x1 = 0.7999	–	25.55
333.15 K, x1 = 0.8	1296.8	–
333.15 K, x1 = 0.8995	1314.7	–
333.15 K, x1 = 0.8998	–	25.83
333.15 K, x1 = 1	1332.8	25.73
338.15 K, x1 = 0.1003	–	21.68
338.15 K, x1 = 0.101	1185.9	–
338.15 K, x1 = 0.2001	–	21.42
338.15 K, x1 = 0.201	1199.5	–
338.15 K, x1 = 0.2997	–	21.57
338.15 K, x1 = 0.3002	1213.7	–
338.15 K, x1 = 0.3999	–	21.63
338.15 K, x1 = 0.4006	1229.4	–
338.15 K, x1 = 0.4996	–	21.39
338.15 K, x1 = 0.5009	1244.1	–
338.15 K, x1 = 0.5991	1259.7	21.68
338.15 K, x1 = 0.6997	–	21.72
338.15 K, x1 = 0.7001	1279.5	–
338.15 K, x1 = 0.7999	–	21.81
338.15 K, x1 = 0.8	1293.2	–
338.15 K, x1 = 0.8995	1311.1	–
338.15 K, x1 = 0.8998	–	22.08
338.15 K, x1 = 1	1329.2	21.98
343.15 K, x1 = 0.1003	–	18.71
343.15 K, x1 = 0.101	1182.4	–
343.15 K, x1 = 0.2001	–	18.51
343.15 K, x1 = 0.201	1196	–
343.15 K, x1 = 0.2997	–	18.64
343.15 K, x1 = 0.3002	1210.3	–
343.15 K, x1 = 0.3999	–	18.68
343.15 K, x1 = 0.4006	1225.9	–
343.15 K, x1 = 0.4996	–	18.5
343.15 K, x1 = 0.5009	1240.6	–
343.15 K, x1 = 0.5991	1256.2	18.74
343.15 K, x1 = 0.6997	–	18.78
343.15 K, x1 = 0.7001	1276	–
343.15 K, x1 = 0.7999	–	18.84
343.15 K, x1 = 0.8	1289.7	–
343.15 K, x1 = 0.8995	1307.5	–
343.15 K, x1 = 0.8998	–	19.06
343.15 K, x1 = 1	1325.5	18.95
